Columns and labels:
monkey plasma albumin = assay: Plasma protein binding (ultracentrifugation), monkey; assay type: in vitro ADME; also: tested at 0.2 µM
Protocol: (§1) The binding degree of the assay compound to human/mouse/rat/canine/monkey plasma albumin was studied.
(§2) • 1) Matrix preparation: on the day of the assay, plasma was thawed in cold water and centrifuged at 3220 rpm for 5 min to remove all clots. The pH of the resulting plasma was measured and adjusted to 7.4±0.1 using 1% phosphoric acid or IN sodium hydroxide as needed. • 2) Dilution procedure for the assay compound: the assay compound was dissolved in dimethyl sulfoxide (DMSO) to prepare stock solutions with concentrations of 10 mM and 2 mM, respectively. A 40 μM working solution was prepared by diluting 2 μL of stock solution (2 mM) with 98 μL of DMSO. A 400 μM working solution of the control compound was prepared by diluting 10 μL of stock solution with 240 μL of DMSO. The working solution of the compound (5 μL) was mixed well with a blank matrix (995 μL) at a ratio of 1:200 to prepare a loading matrix.
(§3) • a) An equal volume of 30 μL of loading matrix (n=2) was transferred to a sample collection plate to prepare a time 0 (TO) sample for residue determination. The sample was immediately matched with the corresponding blank buffer to a final volume of 60 μL, and the volume ratio of plasma to buffer in each well was 1:1. […] The mixture was centrifuged at 4000 rpm for 20 min and 100 μL of supernatant from each sample was analyzed by LC-MS/MS.

mouse plasma albumin = assay: Plasma protein binding (ultracentrifugation), mouse; assay type: in vitro ADME; also: tested at 0.2 µM
Protocol: as §1, §2, §3

rat plasma albumin = assay: Plasma protein binding (ultracentrifugation), rat; assay type: in vitro ADME; also: tested at 0.2 µM
Protocol: as §1, §2, §3

[1] = In vivo PK study in SD rats; design: species or system rat; settings: male SD rats
Protocol: Male SD rats were used as assay animals. After a single administration, the plasma concentration of the compound was measured and the pharmacokinetic behavior was evaluated.
Six healthy adult male SD rats were selected, wherein 3 rats were in an intravenous injection group and 3 rats were in an oral group. The vehicle in the intravenous injection group was 5% DMSO+95% (20% HP-β-CD). The compound to be assayed was mixed with an appropriate amount of vehicle for intravenous injection, vortexed and sonicated to prepare a clear solution of 0.2 mg/mL. The clear solution was filtered by a microporous membrane, and then ready for use. The vehicle in the oral group was 5% DMSO+95% (20% HP-β-CD). The compound to be assayed was mixed with the vehicle, vortexed and sonicated to prepare a solution of 1 mg/mL. SD rats were administered 1 mg/kg intravenously or 10 mg/kg orally, and then whole blood was collected for a certain period. Plasma was prepared. The drug concentration was analyzed by LC-MS/MS method, and the pharmacokinetic parameters were calculated by Phoenix WinNonlin software (Pharsight, USA).

In vivo PK study in mice = assay: In vivo PK study in mice; design: species or system mouse; settings: female BALB/c mice
Description: Female BALB/c mice were used as assay animals to determine the blood concentration of the compound and evaluate the pharmacokinetic behavior after a single administration.
Four healthy adult female BALB/c mice were selected, wherein 2 mice were in an intravenous injection group and 2 mice were in an oral group. The vehicle in the intravenous injection group was 5% DMSO+95% (20% HP-β-CD). The compound to be assayed was mixed with an appropriate amount of vehicle for intravenous injection, vortexed and sonicated to prepare a clear solution of 0.5 mg/mL. The clear solution was filtered by a microporous membrane, and then ready for use. The vehicle in the oral group was 5% DMSO+95% (20% HP-β-CD). The compound to be assayed was mixed with the vehicle, vortexed and sonicated to prepare a solution of 0.3 mg/mL. Mice were administered 1 mg/kg intravenously or 3 mg/kg orally, and then whole blood was collected for a certain period. Plasma was prepared. The drug concentration was analyzed by LC-MS/MS method, and the pharmacokinetic parameters were calculated by Phoenix WinNonlin software (Pharsight, USA).

[2] = In vivo PK study in cynomolgus monkeys; design: species or system cynomolgus monkey; settings: male cynomolgus monkeys
Protocol: Male cynomolgus monkeys were used as assay animals. After a single administration, the plasma concentration of the compound was measured and the pharmacokinetic behavior was evaluated.
Five healthy adult male cynomolgus monkeys were selected, wherein 2 animals were in an intravenous injection group, and 3 animals were in an oral group. The vehicle in the intravenous injection group was 5% DMSO+95% (20% HP-β-CD). The compound to be assayed was mixed with an appropriate amount of vehicle for intravenous injection, and dissolved with stirring to prepare a clear solution of 0.4 mg/mL. The clear solution was filtered by a microporous membrane, and then ready for use. The vehicle in the oral group was 5% DMSO+95% (20% HP-β-CD). The compound to be assayed was mixed with the vehicle, and dissolved with stirring to prepare a solution of 0.3 mg/mL. Cynomolgus monkeys were administered 1 mg/kg intravenously or 3 mg/kg orally, and then whole blood was collected for a certain period. Plasma was prepared. The drug concentration was analyzed by LC-MS/MS method, and the pharmacokinetic parameters were calculated by Phoenix WinNonlin software (Pharsight, USA).

## Cc1cccc(CN2C(=O)c3nc(-c4nc(Nc5ccnn5C)ncc4C)sc3C23COC3)n1 [WX001]
Monkey plasma albumin
  Plasma protein binding rate (unbound %): 14.2%
Mouse plasma albumin
  Plasma protein binding rate (unbound %): 11.7%
Rat plasma albumin
  Plasma protein binding rate (unbound %): 8.4%
[1]; 10 mg/kg orally, AUCPO/Dose
  Oral DNAUC: 1445.79 nM · h/mpk
[1]; rat, plasma, intravenous, 1 mg/kg intravenously or 10 mg/kg orally
  clearance: 13.4 mL/min/kg
[1]; rat, plasma, intravenous, 1 mg/kg intravenously or 10 mg/kg orally, read-out: Vdss
  Vd: 1.08 L/kg
[1]; rat, plasma, 1 mg/kg intravenously or 10 mg/kg orally
  half-life: 3.77 h
[1]; rat, plasma, 1 mg/kg intravenously, 10 mg/kg orally, oral bioavailability
  bioavailability: 49%
[1]; rat, single dose, 1 mg/kg intravenously or 10 mg/kg orally, plasma
  Cmax: 2500 nM
In vivo PK study in mice; 3 mg/kg orally, AUCPO/Dose
  Oral DNAUC: 2935 nM · h/mpk
In vivo PK study in mice; mouse, plasma, intravenous, 1 mg/kg intravenously or 3 mg/kg orally
  clearance: 18.9 mL/min/kg
In vivo PK study in mice; mouse, plasma, intravenous, 1 mg/kg intravenously or 3 mg/kg orally, read-out: Vdss
  Vd: 1.23 L/kg
In vivo PK study in mice; mouse, plasma, 1 mg/kg intravenously or 3 mg/kg orally
  half-life: 1.1 h
In vivo PK study in mice; mouse, plasma, 1 mg/kg intravenously, 3 mg/kg orally, oral bioavailability
  bioavailability: 154%
In vivo PK study in mice; mouse, single dose, 1 mg/kg intravenously or 3 mg/kg orally, plasma
  Cmax: 4790 nM
[2]; cynomolgus monkey, plasma, intravenous, 1 mg/kg intravenously or 3 mg/kg orally
  clearance: 16.1 mL/min/kg
[2]; cynomolgus monkey, plasma, intravenous, 1 mg/kg intravenously or 3 mg/kg orally, read-out: Vdss
  Vd: 1.98 L/kg
[2]; cynomolgus monkey, plasma, 1 mg/kg intravenously or 3 mg/kg orally
  half-life: 2.41 h
[2]; cynomolgus monkey, plasma, 1 mg/kg intravenously, 3 mg/kg orally, oral bioavailability
  bioavailability: 50%
[2]; cynomolgus monkey, single dose, 1 mg/kg intravenously or 3 mg/kg orally, plasma
  Cmax: 921 nM
[2]; 3 mg/kg orally, AUCPO/Dose
  Oral DNAUC: 1152.35 nM · h/mpk

Reference: patent US20240309018A1, “THIAZOLE-LACTAM-SPIROHETEROCYCLIC COMPOUNDS AND APPLICATIONS THEREOF” (D3 BIO (WUXI) CO., LTD, priority 2021, published 2024)
